The source of these data is PMC10666275 (ACS Omega, 2023).

Molecules are shown by their SMILES. Converted amounts (≈) assume the structure as drawn. “Also recorded” adds a separate entry of the source.

Assay [1] has as its system MRSA. Briefly: Agar diffusion method, inhibition zones, MRSA. The settings on record: Staphylococcus aureus, 24 h, read-out: IZ (inhibition zone). It is filed as cell-based, methicillin-resistant Staphylococcus aureus.
Assay [2] deals with P. aeruginosa. Briefly: Agar diffusion method, inhibition zones, P. aeruginosa. Format: cell-based, Pseudomonas aeruginosa. As to conditions: 24 h; for zone of inhibition at 10000 µg/mL: Pseudomonas aeruginosa, read-out: IZ (inhibition zone); for IZ (inhibition zone): P. aeruginosa, agar well diffusion, 100 μL of 10 mg/mL in DMSO, 37 °C.
The target of assay [3] is T1, dihydrofolate reductase (DHFR) enzyme (Homo sapiens, UniProt P00374).
T1 sequence (P00374 1-187): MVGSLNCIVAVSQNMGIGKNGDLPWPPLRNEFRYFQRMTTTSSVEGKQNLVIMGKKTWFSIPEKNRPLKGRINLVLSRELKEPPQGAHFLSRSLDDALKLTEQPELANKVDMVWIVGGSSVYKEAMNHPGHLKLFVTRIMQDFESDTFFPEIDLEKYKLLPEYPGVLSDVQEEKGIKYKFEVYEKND
Nature of the assay: In vitro DHFR inhibition assay. It is filed as biochemical.

In assay [4] the test system is MRSA. Briefly: Resazurin-based 96-well plate microdilution MIC, MRSA. The settings on record: Staphylococcus aureus, 24 h. It is filed as cell-based, methicillin-resistant Staphylococcus aureus. Background: Alamar Blue is a resazurin reagent that responds to reducing activity.
Assay [5] has as its system P. aeruginosa. Briefly: Resazurin-based 96-well plate microdilution MIC, P. aeruginosa. Format: cell-based. The settings on record: Pseudomonas aeruginosa, 24 h.
Assay [6] has as its system MRSA-induced keratitis. Nature of the assay: MRSA-induced keratitis in rats. Format: in vivo, rat (Sprague–Dawley).

Regarding `COc1cc(C(=O)/C=C\c2cn(-c3ccccc3)nc2-c2ccccc2)cc(OC)c1OC` [compound 4, (Z)-3-(1,3-Diphenyl-1H-pyrazol-4-yl)-1-(3,4,5-trimethoxyphenyl)prop-2-en-1-one], the zone of inhibition at 10000 µg/mL in assay [1] was 17 mm; in assay [2] it was 15 mm. In assay [3], this compound showed an IC50 of 5 ± 0.23 µM.

For the compound `COc1cc(-c2cc(-c3cn(-c4ccccc4)nc3-c3ccccc3)[nH]c(=O)n2)cc(OC)c1OC` [compound 5a, 6-(1,3-Diphenyl-1H-pyrazol-4-yl)-4-(3,4,5-trimethoxyphenyl)pyrimidine-2(1H)-one], the zone of inhibition at 10000 µg/mL in assay [1] amounted to 25 mm; in assay [2] it was 22 mm. Moreover, the MIC in assay [4] is 2080 µM (≈ 1000 µg/mL); in assay [5] it was 8320 µM (≈ 4000 µg/mL). In assay [3], this compound registered a half-maximal inhibitory concentration (IC50) of 4.2 ± 0.2 µM.

On to `COc1cc(-c2cc(-c3cn(-c4ccccc4)nc3-c3ccccc3)[nH]c(=S)n2)cc(OC)c1OC` [compound 5b, 6-(1,3-Diphenyl-1H-pyrazol-4-yl)-4-(3,4,5-trimethoxyphenyl)pyrimidine-2(1H)-thione], for which the figures for the zone of inhibition at 10000 µg/mL in assay [1] and in assay [2] were 23 mm and 20 mm, respectively. The MIC was found to be 1010 µM (≈ 500 µg/mL) in assay [4] and 4030 µM (≈ 2000 µg/mL) in assay [5]. Also, the IC50 in assay [3] is 4.1 ± 0.19 µM.

Turning to `COc1cc(-c2cc(-c3cn(-c4ccccc4)nc3-c3ccccc3)[nH]c(=N)n2)cc(OC)c1OC` [compound 5c, 6-(1,3-Diphenyl-1H-pyrazol-4-yl)-4-(3,4,5-trimethoxyphenyl)pyrimidine-2(1H)-imine], the zone of inhibition at 10000 µg/mL came out at 28 mm in assay [1] and 24 mm in assay [2]. Also, the MIC came out at 521 µM (≈ 250 µg/mL) in assay [4] and 2080 µM (≈ 1000 µg/mL) in assay [5]. In assay [3], this compound had an IC50 of 4 ± 0.18 µM. In assay [6] (5c dispersion, versus MRSA group), the “area % of corneal opacity (infection intensity)” value is reported as “significantly (P < 0.0001) reduced infection in rats; also recorded: significant reduction in the area % of corneal opacity”. Moreover, the inflammation score result in assay [6] (H&E cornea, score 0-4, versus MRSA group) is reported as “significant decrease in inflammation score”. Besides, the “corneal inflammation, histological evaluation (H&E)” value in assay [6] (MRSA/5c dispersion group compared to MRSA group) was “mild to moderate inflammatory cell infiltration”.

In the case of `COc1cc(C2=NNC(c3cn(-c4ccccc4)nc3-c3ccccc3)C2)cc(OC)c1OC` (stereo not drawn) [compound 6a, 1′,3′-Diphenyl-5-(3,4,5-trimethoxyphenyl)-3,4-dihydro-1′H,2H-3,4′-bipyrazole], the values for the zone of inhibition at 10000 µg/mL in assay [1] and in assay [2] were 15 mm and 6 mm, respectively. Also, the IC50 in assay [3] came out at 5.56 ± 0.27 µM.

As for `COc1cc(C2=NN(c3ccccc3)C(c3cn(-c4ccccc4)nc3-c3ccccc3)C2)cc(OC)c1OC` (stereo not drawn) [compound 6b, 1′,2,3′-Triphenyl-5-(3,4,5-trimethoxyphenyl)-3,4-dihydro-1′H,2H-3,4′-bipyrazole], the zone of inhibition at 10000 µg/mL came out at 6 mm in assay [1] and 0 mm in assay [2]. Further, in assay [2], the “IZ (inhibition zone)” value is “no detectable activity”. For the same compound, the IC50 in assay [3] is 6.45 ± 0.31 µM.

Consider `COc1cc(C2=NN(C(C)=O)C(c3cn(-c4ccccc4)nc3-c3ccccc3)C2)cc(OC)c1OC` (stereo not drawn) [compound 7, 1-(1′,3′-Diphenyl-5-(3,4,5-trimethoxyphenyl)-3,4-dihydro-1′H,2H-[3,4′-bipyrazol]-2-yl)ethan-1-one], for which, in assay [1], the zone of inhibition at 10000 µg/mL came to 11 mm. Also, in assay [2], the “IZ (inhibition zone)” value is on record as “no detectable activity” and the zone of inhibition at 10000 µg/mL is 0 mm. For the same compound, the IC50 in assay [3] came to 6.7 ± 0.31 µM.

For the compound `C[C@H]1COc2c(N3CCN(C)CC3)c(F)cc3c(=O)c(C(=O)O)cn1c23` [levofloxacin, reference compound], the figures for the zone of inhibition at 10000 µg/mL in assay [1] and in assay [2] were 31 mm and 27 mm, respectively. The MIC in assay [4] is 346 µM (≈ 125 µg/mL); in assay [5] it was 1380 µM (≈ 500 µg/mL).

The IC50 is the concentration at which inhibition is half-maximal. A high value points to weaker potency in that assay. As usually defined, the MIC is the least concentration at which growth counts as inhibited. A high value points to a less susceptible organism.
